Data from patent US10696615B2, “Prenylated hydroxystilbenes” (The University of Sydney, priority 2011, dated 2020).

Experiments:
[1] = Acute toxicity study (maximum tolerated dose); type: in vivo; details: for Death days / Survivor/Total day 15: IP, single dose
Protocol: A single mouse is given a single IP injection of 400 mg/kg; a second mouse receives a dose of 200 mg/kg IP and a third mouse receives a single dose of 100 mg/kg IP. The mice are observed for a period of 2 weeks. They are sacrificed if they lose more than 20% of their body weight or if there are other signs of significant toxicity. If all 3 mice must be sacrificed, then the next 3 dose levels (50, 25, 12.5 mg/kg) are tested in a similar way. This process is repeated until a tolerated dose is found. This dose is then designated the maximum tolerated dose (MTD) and is used to calculate the amount of material given to experimental mice during anti-tumor testing. The mice are allowed ad libitum feed and water. Drug was dissolved in 100% DMSO at concentration of 200 mg/mL.

CDK4/CyclinD3 = CDK4/CyclinD3 (Homo sapiens, UniProt P11802); experiment: Kinase activity assay; type: biochemical; details: listed = inhibited more than 60%
Chain of CDK4/CyclinD3 (P11802 whole entry, species assumed): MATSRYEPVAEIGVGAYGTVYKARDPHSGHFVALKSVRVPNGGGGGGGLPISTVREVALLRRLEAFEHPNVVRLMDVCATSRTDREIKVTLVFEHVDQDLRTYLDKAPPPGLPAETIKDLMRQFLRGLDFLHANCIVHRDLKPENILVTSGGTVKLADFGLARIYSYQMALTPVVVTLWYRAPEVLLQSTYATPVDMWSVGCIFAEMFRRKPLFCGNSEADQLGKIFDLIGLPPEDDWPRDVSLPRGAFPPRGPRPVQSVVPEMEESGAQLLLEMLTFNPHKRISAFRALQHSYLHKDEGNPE
Chain of CDK4/CyclinD3 (P30281 whole entry partner, species assumed): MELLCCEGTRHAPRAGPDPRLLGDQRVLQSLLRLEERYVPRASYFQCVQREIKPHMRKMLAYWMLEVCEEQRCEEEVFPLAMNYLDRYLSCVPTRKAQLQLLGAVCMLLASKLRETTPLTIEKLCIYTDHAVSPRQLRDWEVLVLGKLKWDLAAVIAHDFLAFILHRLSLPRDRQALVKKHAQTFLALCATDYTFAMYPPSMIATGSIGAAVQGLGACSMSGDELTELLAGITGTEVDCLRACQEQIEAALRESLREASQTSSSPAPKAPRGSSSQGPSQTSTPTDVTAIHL
Protocol: (§1) • Kinase-Glo(Plus)/ADP-Gloassay buffer 25 mMHEPES, 10 mMMgCl2, 0.01% Triton X-100, 100 μg/mLBSA, 2.5 mMDTT, pH7.4. • Caliper assay buffer 100 mMHEPES, 10 mMMgCl2, 100 μl/L Brij35 (30%), 1 mMDTT, pH7.4. Assay Substrates • MBP protein, UnactiveMEK1, Rbprotein were purchased from SignalChem. Poly(glu:tyr)(4:1) was purchased from Sigma. PIP2 was purchased from Cayman. Peptide substrates were synthesized in HD Biosciences, China. ATP was purchased from Sigma. KinaseGloPlus reagent, KinaseGloreagent and ADP Gloreagent were purchased from Promega Assay Procedure—Caliper Format
(§2) Mix Kinases, substrate, ATP and compound in 96-well assay plate, total volume is 50 μL. Incubate assay plate at 30° C. for 1 hour. Stop reaction by adding 20 μL of 35 mM EDTA and transfer 26 μL stopped reaction to 384-well assay plate. Read the assay plate on the plate reader.
(§3) Mix Kinases, substrate, ATP and compound in 384-well assay plate, total volume is 10 μl. Incubate assay plate at 30° C. for 1 hour. Add 10 μl/well of ADP GloReagent to the assay plate, incubate at 27° C. for 40 min.
(§4) Add 20 μl/well Detection Reagent to the assay plate, incubate at 27° C. for 30 min. Read the assay plate on the plate reader
(§5) Mix Kinase, substrate, ATP and compound in 384-well assay plate, total volume is 10 μl. Incubate assay plate at 30° C. for 1 hour. Add 10 μl/well KinaseGlo(Plus) reagent to the reaction mixture, and then incubate at 27° C. for 20 min. Read the assay plate on plate reader. • Hundred percent effect was performed without compound and enzyme, but containing ATP and substrate. • Zero percent effect was carried out without compound, but containing ATP, substrate and enzyme. • SB202190 is reference compounds for kinase p38β; Staurosporine(STSP) is reference compound for the remaining kinases. Results

[2] = DPPH scavenging activity assay; details: FIG. 10, result in words
Protocol: The (1,1-diphenyl-2-picrylhydrazyl) DPPH assay is commonly used to test free radical scavenging ability of a compound or extracts of natural products by measurement of the reduction of DPPH* radicals at 517 nm. […] Upon reduction by an antioxidant or radical scavenger, the absorption disappears and the resulting decolorization by scavenging the radical is stoichiometric with respect to the number of electrons taken up (DPPH*+AH→DPPH:H+A*). The DPPH assay was carried out in a stepwise procedure as described below.
A methanolic solution of DPPH (0.1 mM) was stirred in a dark container at room temperature for 20 min. The solution was scanned between 400-750 nm to obtain a maximum wavelength (λmax, ˜510 nm). The concentration of the DPPH solution was adjusted with methanol to result in a maximum absorbance of approximately 1.0. Test samples at different concentrations and standard antioxidant solution (0.05 mL) were added to 0.95 mL of methanolic DPPH solution in a cuvette. Final concentrations of the test samples were 0.1, 1, 10, 50, 100 and 200 μM. The mixtures were shaken vigorously and allowed to stand in the dark for 30 min at room temperature. Absorbance of the resulting solution was measured at the maximum wavelength (˜510 nm). A decrease in absorbance indicated a free radical scavenging effect of the test samples. […]

KDR = KDR (Homo sapiens, UniProt P35968); experiment: Kinase activity assay; type: biochemical; details: listed = inhibited more than 60%
Chain of KDR (P35968 20-1356, species assumed): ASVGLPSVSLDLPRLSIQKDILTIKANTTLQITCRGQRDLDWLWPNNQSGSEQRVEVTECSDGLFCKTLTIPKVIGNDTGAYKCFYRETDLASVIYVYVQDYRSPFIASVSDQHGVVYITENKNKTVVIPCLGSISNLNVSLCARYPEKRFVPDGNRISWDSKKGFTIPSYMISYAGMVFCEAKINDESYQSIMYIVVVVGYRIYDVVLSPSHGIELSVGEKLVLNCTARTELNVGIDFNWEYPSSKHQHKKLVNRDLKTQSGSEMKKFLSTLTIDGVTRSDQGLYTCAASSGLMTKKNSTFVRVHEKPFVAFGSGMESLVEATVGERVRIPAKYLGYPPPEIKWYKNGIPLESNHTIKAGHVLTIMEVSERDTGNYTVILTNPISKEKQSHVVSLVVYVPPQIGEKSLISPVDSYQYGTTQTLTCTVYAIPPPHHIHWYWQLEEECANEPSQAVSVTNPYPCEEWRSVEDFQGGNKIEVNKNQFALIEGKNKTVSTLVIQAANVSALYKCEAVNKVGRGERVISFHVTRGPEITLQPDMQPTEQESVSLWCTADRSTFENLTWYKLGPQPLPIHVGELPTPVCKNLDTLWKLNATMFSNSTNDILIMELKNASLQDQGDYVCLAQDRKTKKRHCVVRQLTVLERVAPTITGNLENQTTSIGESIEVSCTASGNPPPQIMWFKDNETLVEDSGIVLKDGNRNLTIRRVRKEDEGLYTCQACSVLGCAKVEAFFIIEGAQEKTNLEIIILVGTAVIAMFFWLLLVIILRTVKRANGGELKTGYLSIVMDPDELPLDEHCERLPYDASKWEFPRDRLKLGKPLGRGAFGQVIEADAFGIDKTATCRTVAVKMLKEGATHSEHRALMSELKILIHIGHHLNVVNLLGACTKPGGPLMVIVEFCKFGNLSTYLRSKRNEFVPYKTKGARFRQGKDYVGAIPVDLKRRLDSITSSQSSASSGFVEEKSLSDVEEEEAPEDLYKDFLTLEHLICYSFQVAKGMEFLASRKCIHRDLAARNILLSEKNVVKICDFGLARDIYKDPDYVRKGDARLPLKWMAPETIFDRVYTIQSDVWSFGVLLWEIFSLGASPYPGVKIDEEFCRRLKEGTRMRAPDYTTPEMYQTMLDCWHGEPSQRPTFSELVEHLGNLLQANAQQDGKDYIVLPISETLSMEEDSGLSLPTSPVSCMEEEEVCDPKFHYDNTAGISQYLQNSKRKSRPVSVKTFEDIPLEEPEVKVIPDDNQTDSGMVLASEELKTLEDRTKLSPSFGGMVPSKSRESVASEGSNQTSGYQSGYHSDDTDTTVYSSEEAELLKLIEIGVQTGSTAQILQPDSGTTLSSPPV
Protocol: as §1, §2, §3, §4, §5

FLT1 = FLT1 (Homo sapiens, UniProt P17948); experiment: Kinase activity assay; type: biochemical; details: listed = inhibited more than 60%
Chain of FLT1 (P17948 27-1338, species assumed): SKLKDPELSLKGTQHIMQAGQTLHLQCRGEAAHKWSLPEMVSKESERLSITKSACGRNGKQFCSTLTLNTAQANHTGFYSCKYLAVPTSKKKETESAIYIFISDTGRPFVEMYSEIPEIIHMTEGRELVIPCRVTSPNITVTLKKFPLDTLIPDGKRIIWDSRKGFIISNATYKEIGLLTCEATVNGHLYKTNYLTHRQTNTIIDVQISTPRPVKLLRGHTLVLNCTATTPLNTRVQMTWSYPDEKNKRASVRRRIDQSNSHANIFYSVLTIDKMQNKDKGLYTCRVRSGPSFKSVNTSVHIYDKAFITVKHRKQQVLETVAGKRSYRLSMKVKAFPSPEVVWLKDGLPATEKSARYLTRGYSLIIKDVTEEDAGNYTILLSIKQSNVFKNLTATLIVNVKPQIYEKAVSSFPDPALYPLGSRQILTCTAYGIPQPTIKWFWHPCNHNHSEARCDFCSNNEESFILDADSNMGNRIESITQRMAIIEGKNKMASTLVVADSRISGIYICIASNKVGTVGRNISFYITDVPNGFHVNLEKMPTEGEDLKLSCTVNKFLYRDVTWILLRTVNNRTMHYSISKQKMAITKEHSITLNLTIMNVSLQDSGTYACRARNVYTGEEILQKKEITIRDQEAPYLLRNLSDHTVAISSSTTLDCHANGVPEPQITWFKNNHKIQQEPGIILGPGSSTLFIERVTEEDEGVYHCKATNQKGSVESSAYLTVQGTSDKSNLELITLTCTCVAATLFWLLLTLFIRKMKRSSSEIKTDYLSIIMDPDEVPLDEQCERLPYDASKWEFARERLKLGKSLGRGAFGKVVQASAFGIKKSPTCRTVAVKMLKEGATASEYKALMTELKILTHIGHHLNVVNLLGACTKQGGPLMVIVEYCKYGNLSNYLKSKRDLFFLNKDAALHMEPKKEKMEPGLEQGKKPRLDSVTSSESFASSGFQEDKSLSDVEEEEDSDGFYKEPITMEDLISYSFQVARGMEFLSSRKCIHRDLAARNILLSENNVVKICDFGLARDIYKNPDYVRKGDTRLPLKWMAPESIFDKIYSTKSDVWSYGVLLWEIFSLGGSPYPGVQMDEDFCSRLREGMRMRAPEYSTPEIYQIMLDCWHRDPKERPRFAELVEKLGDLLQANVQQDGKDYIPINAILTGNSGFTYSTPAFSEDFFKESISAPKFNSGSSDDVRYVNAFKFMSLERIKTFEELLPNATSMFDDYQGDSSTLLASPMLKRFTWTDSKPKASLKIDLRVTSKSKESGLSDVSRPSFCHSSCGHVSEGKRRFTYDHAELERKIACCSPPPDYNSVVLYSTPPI
Protocol: as §1, §2, §3, §4, §5

CDK1/CyclinB = CDK1/CyclinB (Homo sapiens, UniProt P06493); experiment: Kinase activity assay; type: biochemical; details: listed = inhibited more than 60%
Chain of CDK1/CyclinB (P06493 whole entry, species assumed): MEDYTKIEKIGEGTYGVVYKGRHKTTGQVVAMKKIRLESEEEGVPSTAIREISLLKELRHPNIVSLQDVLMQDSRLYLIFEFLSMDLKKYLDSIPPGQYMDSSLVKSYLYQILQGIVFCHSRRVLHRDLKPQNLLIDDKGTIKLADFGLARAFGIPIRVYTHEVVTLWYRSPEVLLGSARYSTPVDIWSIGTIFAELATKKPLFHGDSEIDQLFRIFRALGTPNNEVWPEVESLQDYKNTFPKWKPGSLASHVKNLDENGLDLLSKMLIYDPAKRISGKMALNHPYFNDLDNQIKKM
Chain of CDK1/CyclinB (P14635 whole entry partner, species assumed): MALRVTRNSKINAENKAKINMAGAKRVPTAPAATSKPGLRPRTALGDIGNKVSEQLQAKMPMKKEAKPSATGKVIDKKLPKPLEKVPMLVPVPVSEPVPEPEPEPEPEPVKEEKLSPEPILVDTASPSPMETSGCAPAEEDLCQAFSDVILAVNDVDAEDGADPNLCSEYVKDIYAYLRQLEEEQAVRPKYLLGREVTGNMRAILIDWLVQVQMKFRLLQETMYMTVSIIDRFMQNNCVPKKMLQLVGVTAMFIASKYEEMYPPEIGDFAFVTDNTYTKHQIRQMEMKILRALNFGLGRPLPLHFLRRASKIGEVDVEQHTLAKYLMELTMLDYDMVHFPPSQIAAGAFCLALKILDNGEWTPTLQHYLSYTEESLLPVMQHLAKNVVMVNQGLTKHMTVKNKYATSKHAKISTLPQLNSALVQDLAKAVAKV
Protocol: as §1, §2, §3, §4, §5

For `COc1cc(/C=C/c2cc(O)cc(OC)c2CC=C(C)C)ccc1O` [USYDS1, (E)-2-(3-methyl-2-buten-1-yl)-4′,5-dihydroxy-3,3′-dimethoxystilbene], which MTD at 2 weeks ([1]; in vivo, mouse, single IP injection, observed 2 weeks) is on record?
The MTD at 2 weeks was 100 mg/kg.

And the Death days ([1]; mouse, 100 mg/kg/dose)?
Its Death days is “None”.

What about the “Survivor/Total day 15” value ([1]; mouse, 100 mg/kg/dose) of the same compound?
The value was 1/1.

What about the Death days ([1]; mouse, 200 mg/kg/dose) of the same compound?
Its Death days is 1.

And the “Survivor/Total day 15” value ([1]; mouse, 200 mg/kg/dose)?
Its value is 0/1.

What about the Death days ([1]; mouse, 400 mg/kg/dose) of the same compound?
The Death days was 1.

What about the “Survivor/Total day 15” value ([1]; mouse, 400 mg/kg/dose) of the same compound?
Its value is 0/1.

What about the mammalian toxicity ([1]; result in words) of the same compound?
Its mammalian toxicity is “low mammalian toxicity”.

And the “Kinases that inhibited more than 60%” value (CDK4/CyclinD3)?
The value was “CDK4/CyclinD3”.

Which “effect on free radical scavenging” value [2] does the source give for `CC(C)=CCc1c(O)cc(/C=C/c2ccc(O)c(O)c2)c(CC=C(C)C)c1O` [USYDS7, (E)-2,4-di(3-methyl-2-buten-1-yl)-3,3′,4′,5-tetrahydroxystilbene] here?
The value was “strong effect”.

For `COc1cc(/C=C/c2cc(O)cc(O)c2CC=C(C)C)ccc1O` [USYDS10, (E)-2-(3-methyl-2-buten-1-yl)-3,4′,5-trihydroxy-3′-methoxystilbene], which “Kinases that inhibited more than 60%” value (KDR) is on record?
The value was “KDR”.

And the “Kinases that inhibited more than 60%” value (FLT1)?
Its value is “FLT1”.

And the “Kinases that inhibited more than 60%” value (CDK1/CyclinB)?
The value was “CDK1/CyclinB”.
